From patent US20080063719A1, “Pharmaceutical Compositions” (Vectura Limited, priority 2004, published 2008) come the findings set out here.

Common to all, as to format: physicochemical
A short description of data set [1]: DVS (dynamic vapour sorption) moisture sorption analysis. The source says:
100% amorphous glycopyrrolate was obtained by lyophilisation.

A short description of data set [2]: Particle sizing of micronised and conditioned glycopyrrolate batches, Example 7. Conditions: micronised drug powder. The method, then:
(§1) The effect of conditioning on micronised glycopyrrolate was investigated. An initial batch of glycopyrrolate ‘A’ was micronised at 9.8 bar with feed rate of 0.2 kg/hour. This material was then conditioned on a tray at 25° C./60% RH, with or without agitation/turning. Each of these powders was sized by Sympatec. The powders were then formulated using the method outlined in Example 4, as 20 μg dose in 25 mg powder with 0.15% magnesium stearate and loaded into gelatin capsules. The fine particle fraction was assessed by firing the capsules from a Miat MonoHaler device into a multi stage liquid impinger, using the method defined in the European Pharmacopoeia 4th Edition 2002. The fine particle fraction was defined here as the mass fraction smaller than 5 μm relative to the nominal dose.
as §1, with “A second” for “The effect of conditioning on micronised glycopyrrolate was investigated. An initial”, “‘B’” for “‘A’”, “0.3” for “0.2”, “powder” for “material was then conditioned on a tray at 25° C./60% RH, with or without agitation/turning. Each of these powders”, “powder was” for “powders were”
as §1, with “A third” for “The effect of conditioning on micronised glycopyrrolate was investigated. An initial”, “glycopyrtolate ‘C’” for “glycopyrrolate ‘A’”, “0.4” for “0.2”
as §1, with “A fourth” for “The effect of conditioning on micronised glycopyrrolate was investigated. An initial”, “‘D’” for “‘A’”, “8.8” for “9.8”, “0.4” for “0.2”, “powder” for “material was then conditioned on a tray at 25° C./60% RH, with or without agitation/turning. Each of these powders”, “powder was” for “powders were”
as §1, with “A fifth” for “The effect of conditioning on micronised glycopyrrolate was investigated. An initial”, “‘E’” for “‘A’”, “7.8” for “9.8”, “0.4” for “0.2”
(§2) Batches A1, C1 and E1 were not conditioned. Batches A2, C2 and E2 were conditioned at 25° C./60% RH and batches A3, C3 and E3 were conditioned at 25° C./60% RH with turning.

The nature of data set [3]: MSLI test of formulations made from micronisation trial batches, Example 7. The conditions noted are these: 20 μg dose in 25 mg powder, 0.15% magnesium stearate, gelatin capsules. The protocol:
as §1
as §1, with “A second” for “The effect of conditioning on micronised glycopyrrolate was investigated. An initial”, “‘B’” for “‘A’”, “0.3” for “0.2”, “powder” for “material was then conditioned on a tray at 25° C./60% RH, with or without agitation/turning. Each of these powders”, “powder was” for “powders were”
as §1, with “A third” for “The effect of conditioning on micronised glycopyrrolate was investigated. An initial”, “glycopyrtolate ‘C’” for “glycopyrrolate ‘A’”, “0.4” for “0.2”
as §1, with “A fourth” for “The effect of conditioning on micronised glycopyrrolate was investigated. An initial”, “‘D’” for “‘A’”, “8.8” for “9.8”, “0.4” for “0.2”, “powder” for “material was then conditioned on a tray at 25° C./60% RH, with or without agitation/turning. Each of these powders”, “powder was” for “powders were”
as §1, with “A fifth” for “The effect of conditioning on micronised glycopyrrolate was investigated. An initial”, “‘E’” for “‘A’”, “7.8” for “9.8”, “0.4” for “0.2”
as §2

Data set [4] in a line: Loss on drying and water activity of micronised batches. The source says:
(§3) The following section summarises the tests conducted on reported batches of glycopyrrolate received following micronisation: […]

Data set [5] is described as follows: Observation of bulk powder after sealed storage. The conditions noted are these: sealed storage for several weeks.
Source text: (§4) Batches of micronised glycopyrrolate were obtained and, following sealed storage for several weeks, the physical changes of the material from fine cohesive powders to solid agglomerates were observed.
as §3

Data set [6] can be described thus: Sympatec sizing of micronised glycopyrrolate batches, after micronisation and on storage. Conditions: for Sympatec sizing d10 / Sympatec sizing d50 / Sympatec sizing d90: following micronisation.
Source text: as §4, §3

For `C[N+]1(C)CCC(OC(=O)C(O)(c2ccccc2)C2CCCC2)C1.[Br-]` (stereo not drawn) [amorphous glycopyrrolate], the hygroscopicity entry in data set [1] (obtained by lyophilisation, confirmed by DVS at RH>0%) is “very hygroscopic”.

In data set [2], `C[N+]1(C)CCC(OC(=O)C(O)(c2ccccc2)C2CCCC2)C1.[Br-]` (stereo not drawn) [Formulation A3] returned a D10 of 1.24 μm, a D50 of 4.03 μm and a D90 of 9.78 μm. Moreover, in data set [3] (T = 0), the “% FPD” value is 34.5% and the MMAD is on record as 2.8 μm. Further, in data set [3] (T = 2 wks), the “% FPD” value was found to be 31.5% and the MMAD is on record as 3.1 μm.

Take `C[N+]1(C)CCC(OC(=O)C(O)(c2ccccc2)C2CCCC2)C1.[Br-]` (stereo not drawn) [Batch B]: in data set [4], the Loss on drying is 0.6% and the Water activity is 54 % RH. Also, the “DVS finding (crystalline or amorphous material)” value (from here on “DVS finding”) in data set [1] is recorded as “amorphous material was present”. Moreover, the “state of bulk powder on storage” value in data set [5] is given as “large hard lumps”. Besides, in data set [6], the “Sympatec sizing d10” value stood at 1.0 μm, the “Sympatec sizing d50” value is recorded as 2.4 μm and the “Sympatec sizing d90” value is on record as 4.8 μm.

The compound `C[N+]1(C)CCC(OC(=O)C(O)(c2ccccc2)C2CCCC2)C1.[Br-]` (stereo not drawn) [Remicronised Batch C] had a Loss on drying in data set [4] of 0.5%. Moreover, in data set [5], the “state of bulk powder on storage” value was “only soft lumps”. In data set [6], the “Sympatec sizing d10” value amounted to 1.0 μm, the “Sympatec sizing d50” value is 2.4 μm and the “Sympatec sizing d90” value is 4.5 μm.

`C[N+]1(C)CCC(OC(=O)C(O)(c2ccccc2)C2CCCC2)C1.[Br-]` (stereo not drawn) [Batch A]: the Loss on drying in data set [4] worked out at 0.7%. In data set [1], the “DVS finding” value is listed as “crystalline material”. Besides, the “state of bulk powder on storage” value in data set [5] is “soft lumps”. In data set [6], the “Sympatec sizing d10” value came to 0.7 μm, the “Sympatec sizing d50” value stood at 1.8 μm and the “Sympatec sizing d90” value is recorded as 3.6 μm.

Turning to `C[N+]1(C)CCC(OC(=O)C(O)(c2ccccc2)C2CCCC2)C1.[Br-]` (stereo not drawn) [Formulation E1], in data set [2], the D10 is reported as 1.01 μm, the D50 worked out at 2.47 μm and the D90 was 4.88 μm. In data set [3] (T = 0), the “% FPD” value is listed as 39.9% and the MMAD stood at 3.3 μm. In data set [3] (T = 2 wks), the “% FPD” value came to 33.3% and the MMAD is given as 3.4 μm.

`C[N+]1(C)CCC(OC(=O)C(O)(c2ccccc2)C2CCCC2)C1.[Br-]` (stereo not drawn) [Batch C] showed a Loss on drying in data set [4] of 0.4%. Further, in data set [1], the “DVS finding” value was “amorphous material was present”. Besides, the “state of bulk powder on storage” value in data set [5] is reported as “large hard lumps”. Further, in data set [6], the “Sympatec sizing d10” value worked out at 0.8 μm, the “Sympatec sizing d50” value is reported as 2.3 μm and the “Sympatec sizing d90” value is 4.8 μm. For the same compound, the “d50 on repeated particle sizing” value in data set [6] (on storage) amounted to 51 μm.

In data set [2], `C[N+]1(C)CCC(OC(=O)C(O)(c2ccccc2)C2CCCC2)C1.[Br-]` (stereo not drawn) [Formulation A2] registered a D10 of 1.22 μm, a D50 of 3.89 μm and a D90 of 10.02 μm.

In data set [2], `C[N+]1(C)CCC(OC(=O)C(O)(c2ccccc2)C2CCCC2)C1.[Br-]` (stereo not drawn) [Formulation A1] gave a D10 of 0.81 μm, a D50 of 1.95 μm and a D90 of 3.68 μm. For the same compound, in data set [3] (T = 0), the “% FPD” value was 34.7% and the MMAD was 2.8 μm. Also, in data set [3] (T = 2 wks), the “% FPD” value was 30.5% and the MMAD worked out at 3.2 μm.

For the compound `C[N+]1(C)CCC(OC(=O)C(O)(c2ccccc2)C2CCCC2)C1.[Br-]` (stereo not drawn) [Formulation C1], in data set [2], the D10 amounted to 0.95 μm, the D50 is given as 2.41 μm and the D90 stood at 4.83 μm. For the same compound, in data set [3] (T = 0), the “% FPD” value came to 39.9% and the MMAD is listed as 3.9 μm. Further, in data set [3] (T = 2 wks), the “% FPD” value stood at 35.5% and the MMAD stood at 4.0 μm.

In data set [2], `C[N+]1(C)CCC(OC(=O)C(O)(c2ccccc2)C2CCCC2)C1.[Br-]` (stereo not drawn) [Formulation C3] showed a D10 of 1.24 μm, a D50 of 3.97 μm and a D90 of 8.23 μm. Moreover, in data set [3] (T = 0), the “% FPD” value is on record as 39.9% and the MMAD worked out at 3.2 μm. In addition, in data set [3] (T = 2 wks), the “% FPD” value was determined as 37.9% and the MMAD is 3.4 μm.

In data set [2], `C[N+]1(C)CCC(OC(=O)C(O)(c2ccccc2)C2CCCC2)C1.[Br-]` (stereo not drawn) [Formulation C2] yielded a D10 of 1.24 μm, a D50 of 3.76 μm and a D90 of 7.84 μm. In addition, in data set [3] (T = 0), the “% FPD” value stood at 39.2% and the MMAD is 3.3 μm. In data set [3] (T = 2 wks), the “% FPD” value amounted to 34.0% and the MMAD came to 3.6 μm.

In data set [2], `C[N+]1(C)CCC(OC(=O)C(O)(c2ccccc2)C2CCCC2)C1.[Br-]` (stereo not drawn) [Formulation E2] gave a D10 of 1.28 μm, a D50 of 3.61 μm and a D90 of 7.08 μm.

Turning to `C[N+]1(C)CCC(OC(=O)C(O)(c2ccccc2)C2CCCC2)C1.[Br-]` (stereo not drawn) [Formulation E3], in data set [2], the D10 is given as 1.23 μm, the D50 turned out to be 3.79 μm and the D90 was found to be 7.85 μm. Besides, in data set [3] (T = 0), the “% FPD” value turned out to be 38.7% and the MMAD came out at 3.2 μm. In data set [3] (T = 2 wks), the “% FPD” value is listed as 32.7% and the MMAD was 3.7 μm.
